Test results from US20250163104A1, “MACROCYCLIC IMMUNOMODULATORS” (priority 2021, published 2025).
Where a SMILES comes first, the peptide text is derived from it. Bridges are numbered along the chain shown (N, C = ends). [ ]: non-standard residue; d: D form. The star is where a group is joined. ξ: configuration not given here. Phe(3-CF3) = N[C@@H](Cc1cccc(C(F)(F)F)c1)C(=O)O; Phe(4-COOH) = N[C@@H](Cc1ccc(C(=O)O)cc1)C(=O)O; Bip = N[C@@H](Cc1ccc(-c2ccccc2)cc1)C(=O)O; Phe(4-CN) = N#Cc1ccc(C[C@H](N)C(=O)O)cc1; Phe(3-Me) = Cc1cccc(C[C@H](N)C(=O)O)c1; Phe(2-F) = N[C@@H](Cc1ccccc1F)C(=O)O; Val(3-OH) = CC(C)(O)[C@H](N)C(=O)O; 4Pal = N[C@@H](Cc1ccncc1)C(=O)O; Cha = N[C@@H](CC1CCCCC1)C(=O)O; Cit = NC(=O)NCCC[C@H](N)C(=O)O; Thr(3ξ) = CC(O)[C@H](N)C(=O)O; dDab = NCC[C@@H](N)C(=O)O; Carboxymethyl = O=C(O)C*; Orn = NCCC[C@H](N)C(=O)O; Pra = C#CC[C@H](N)C(=O)O; Dab = NCC[C@H](N)C(=O)O; Dap = NC[C@H](N)C(=O)O

biological target: T1, human PD-1 / PD-L1-Ig binding on Jurkat cell line over-expressing human PD-1 (Jurkat-PD-1) (Homo sapiens, UniProt Q15116); experiment: Jurkat-PD-1 Cell Binding High-Content Screening Assay (CBA); format: cell-based; settings: Jurkat HPD1_PDL1 IC50, Jurkat-PD-1 cells, PE-labeled PD-L1-Ig 20 nM final
T1 construct: expressed in transfected cells; host or cells: Jurkat
T1 sequence (Q15116 25-288): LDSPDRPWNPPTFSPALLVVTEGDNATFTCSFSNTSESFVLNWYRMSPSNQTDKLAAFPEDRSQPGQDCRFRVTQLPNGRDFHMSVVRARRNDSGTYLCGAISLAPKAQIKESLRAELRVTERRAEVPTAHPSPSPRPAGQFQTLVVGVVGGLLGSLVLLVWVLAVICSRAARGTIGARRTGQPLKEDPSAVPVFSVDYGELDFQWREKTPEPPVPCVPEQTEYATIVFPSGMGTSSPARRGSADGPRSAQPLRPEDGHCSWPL
Outline: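 PE-PD-L1-Ig 20 nM final; cells in DMEM/10% FCS; cpd pre-incubation 2 h, 37° C; ligand 1 h; PFA fix + Hoechst 33342; high-content imaging read-out.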

Row | SMILES | IC50
1 | CC(C)C[C@H]1NC(=O)[C@H](CCCN)NC(=O)[C@H](CCC(=O)O)NC(=O)[C@H](Cc2ccc(-c3ccccc3)cc2)NC(=O)[C@H](C(C)C)NC(=O)[C@H](Cc2c[nH]c3ccccc23)NC(=O)[C@H](CC(=O)O)NC(=O)[C@H](Cc2ccc(C(=O)O)cc2)NC(=O)[C@H](Cc2ccncc2)NC(=O)CSC[C@@H](C(=O)N[C@@H](C)C(N)=O)NC(=O)[C@H]([C@@H](C)O)NC(=O)[C@H](C(C)C)NC(=O)[C@H](CC2CCCCC2)NC(=O)[C@H](Cc2c[nH]cn2)NC1=O [Compound 1597] | 20.2 nM

same assay, conditions: Jurkat-PD-1 cells, PE-labeled PD-L1-Ig 20 nM final; read-out: Jurkat HPD1_PDL1 IC50

Row | IC50 | SMILES
2 | 4.1 nM | Cc1cccc(C[C@@H]2NC(=O)[C@H](CC(=O)O)NC(=O)[C@H](Cc3ccc(C(=O)O)cc3)NC(=O)[C@H](CN)NC(=O)CSC[C@@H](C(=O)N[C@@H](CCN)C(N)=O)NC(=O)[C@@H](CCN)NC(=O)[C@H](C(C)C)NC(=O)[C@H](CC3CCCCC3)NC(=O)[C@H](CCN)NC(=O)[C@@H](CC(C)C)NC(=O)[C@H](CCCN)NC(=O)[C@H](C(C)C)NC(=O)[C@H](Cc3ccc(-c4ccccc4)cc3)NC(=O)[C@H](C(C)C)NC2=O)c1 [Compound 2029] ({CH2CO}-[Dap][Phe(4-COOH)]D[Phe(3-Me)]V[Bip]V[Orn][dL][Dab][Cha]V[dDab]C[Dab]-NH2; thioether N-14)
3 | 20.7 nM | CC(C)C[C@@H]1NC(=O)[C@H](CCN)NC(=O)[C@@H](CC(C)C)NC(=O)[C@H](CCN)NC(=O)[C@H](CCCNC(N)=O)NC(=O)[C@H](Cc2ccc(-c3ccccc3)cc2)NC(=O)[C@H](C(C)C)NC(=O)[C@H](Cc2c[nH]c3ccccc23)NC(=O)[C@H](CC(=O)O)NC(=O)[C@H](Cc2ccc(O)cc2)NC(=O)[C@H](CC(N)=O)NC(=O)CSC[C@@H](C(=O)N[C@@H](C)C(N)=O)NC(=O)[C@H]([C@@H](C)O)NC(=O)[C@H](C(C)C)NC1=O [Compound 1018] ({CH2CO}-NYDWV[Bip][Cit][Dab][dL][Dab]LVTCA-NH2; thioether N-14)
4 | 18.1 nM | CC(C)C[C@@H]1NC(=O)[C@H](Cc2c[nH]c3ccccc23)NC(=O)[C@H](CC(=O)O)NC(=O)[C@H](Cc2ccc(O)cc2)NC(=O)[C@H](Cc2ccccc2)NC(=O)CSC[C@@H](C(=O)N[C@@H](C)C(N)=O)NC(=O)[C@H]([C@@H](C)O)NC(=O)[C@H](C(C)C)NC(=O)[C@H](CC(C)C)NC(=O)[C@H](CC(N)=O)NC(=O)[C@@H](CC(C)C)NC(=O)[C@H](CCN)NC(=O)[C@H](C(C)C)NC(=O)[C@H](Cc2ccc(-c3ccccc3)cc2)NC1=O [Compound 1058] ({CH2CO}-FYDWL[Bip]V[Dab][dL]NLVTCA-NH2; thioether N-14)
5 | 17.7 nM | CC(C)C[C@H]1NC(=O)[C@H](CCCN)NC(=O)[C@H](CCC(=O)O)NC(=O)[C@H](Cc2ccc(-c3ccccc3)cc2)NC(=O)[C@H](C(C)C)NC(=O)[C@H](Cc2cccc(C(F)(F)F)c2)NC(=O)[C@H](CC(=O)O)NC(=O)[C@H](Cc2ccncc2)NC(=O)[C@H](CN)NC(=O)CSC[C@@H](C(=O)N[C@@H](C)C(N)=O)NC(=O)[C@H]([C@@H](C)O)NC(=O)[C@H](C(C)C)NC(=O)[C@H](CC2CCCCC2)NC(=O)[C@H](CCN)NC1=O [Compound 1459] ({CH2CO}-[Dap][4Pal]D[Phe(3-CF3)]V[Bip]E[Orn][dL][Dab][Cha]VTCA-NH2; thioether N-14)
6 | 14.3 nM | CCCC[C@H]1NC(=O)[C@H](CCCN)NC(=O)[C@H]([C@@H](C)CC)NC(=O)[C@H](Cc2ccc(-c3ccccc3)cc2)NC(=O)[C@H](C(C)C)NC(=O)[C@H](Cc2c[nH]c3ccccc23)NC(=O)[C@H](CC(=O)O)NC(=O)[C@H](Cc2ccc(C(=O)O)cc2)NC(=O)[C@H](Cc2ccncc2)NC(=O)CSC[C@@H](C(=O)N[C@@H](C)C(N)=O)NC(=O)[C@H]([C@@H](C)O)NC(=O)[C@H](C(C)C)NC(=O)[C@H](CC2CCCCC2)NC(=O)[C@H](CCN)NC1=O [Compound 1705]
7 | 25.1 nM | CC(C)C[C@H]1NC(=O)[C@H](CCCN)NC(=O)[C@H](CCC(=O)O)NC(=O)[C@H](Cc2ccc(-c3ccccc3)cc2)NC(=O)[C@H](C(C)C)NC(=O)[C@H](Cc2ccccc2F)NC(=O)[C@H](CC(=O)O)NC(=O)[C@H](Cc2ccncc2)NC(=O)[C@H](Cc2ccc(OCC(=O)O)cc2)NC(=O)CSC[C@@H](C(=O)N[C@@H](C)C(N)=O)NC(=O)[C@H]([C@@H](C)O)NC(=O)[C@H](C(C)C)NC(=O)[C@H](CC2CCCCC2)NC(=O)[C@H](CCN)NC1=O [Compound 2210] ({CH2CO}-Y(Carboxymethyl)[4Pal]D[Phe(2-F)]V[Bip]E[Orn][dL][Dab][Cha]VTCA-NH2; thioether N-14)
8 | 11.3 nM | Cc1cccc(C[C@@H]2NC(=O)[C@H](CC(=O)O)NC(=O)[C@H](Cc3ccc(OCC(=O)O)cc3)NC(=O)[C@H](CN)NC(=O)CSC[C@@H](C(N)=O)NC(=O)[C@H](CC(N)=O)NC(=O)[C@H](C(C)C)NC(=O)[C@H](CC3CCCCC3)NC(=O)[C@H](CCN)NC(=O)[C@@H](CC(C)C)NC(=O)[C@H](CCCN)NC(=O)[C@H](Cc3ccc(OCC(=O)O)cc3)NC(=O)[C@H](Cc3ccc(-c4ccccc4)cc3)NC(=O)[C@H](Cc3ccc(OCC(=O)O)cc3)NC2=O)c1 [Compound 1780] ({CH2CO}-[Dap]Y(Carboxymethyl)D[Phe(3-Me)]Y(Carboxymethyl)[Bip]Y(Carboxymethyl)[Orn][dL][Dab][Cha]VNC-NH2; thioether N-14)
9 | 16.5 nM | C#CC[C@H](NC(=O)[C@H](CCN)NC(=O)[C@@H]1CSCC(=O)N[C@@H](CCCN)C(=O)N[C@@H](Cc2ccc(C(=O)O)cc2)C(=O)N[C@@H](CC(=O)O)C(=O)N[C@@H](Cc2cccc(C)c2)C(=O)N[C@@H](Cc2ccc(C(=O)O)cc2)C(=O)N[C@@H](Cc2ccc(-c3ccccc3)cc2)C(=O)N[C@@H](Cc2ccc(C(=O)O)cc2)C(=O)N[C@@H](CCCN)C(=O)N[C@H](CC(C)C)C(=O)N[C@@H](CCN)C(=O)N[C@@H](CC2CCCCC2)C(=O)N[C@@H](C(C)(C)O)C(=O)N[C@@H](CCCN)C(=O)N1)C(N)=O [Compound 1864] ({CH2CO}-[Orn][Phe(4-COOH)]D[Phe(3-Me)][Phe(4-COOH)][Bip][Phe(4-COOH)][Orn][dL][Dab][Cha][Val(3-OH)][Orn]C[Dab][Pra]-NH2; thioether N-14)
10 | 12.1 nM | CC(C)C[C@@H]1NC(=O)[C@H](Cc2c[nH]c3ccccc23)NC(=O)[C@H](CC(=O)O)NC(=O)[C@H](Cc2ccc(OCC(=O)O)cc2)NC(=O)[C@H](Cc2ccc(OCC(=O)O)cc2)NC(=O)CSC[C@@H](C(=O)NCC(N)=O)NC(=O)[C@H](CO)NC(=O)[C@H](C(C)C)NC(=O)[C@H](CC(C)C)NC(=O)[C@H](CC(N)=O)NC(=O)[C@@H](CC(C)C)NC(=O)[C@H](CN)NC(=O)[C@H](C(C)C)NC(=O)[C@H](Cc2ccc(-c3ccccc3)cc2)NC1=O [Compound 1291] ({CH2CO}-Y(Carboxymethyl)Y(Carboxymethyl)DWL[Bip]V[Dap][dL]NLVSCG-NH2; thioether N-14)
11 | 14 nM | CC(C)C[C@@H]1NC(=O)[C@H](CCN)NC(=O)[C@@H](CC(C)C)NC(=O)[C@H](CCCN)NC(=O)[C@H](C(C)C)NC(=O)[C@H](Cc2ccc(-c3ccccc3)cc2)NC(=O)[C@H](C(C)C)NC(=O)[C@H](Cc2c[nH]c3ccccc23)NC(=O)[C@H](CC(=O)O)NC(=O)[C@H](Cc2ccc(C(=O)O)cc2)NC(=O)[C@H](CN)NC(=O)CSC[C@@H](C(=O)N[C@@H](C)C(N)=O)NC(=O)[C@H]([C@@H](C)O)NC(=O)[C@H](C(C)C)NC1=O [Compound 1046] ({CH2CO}-[Dap][Phe(4-COOH)]DWV[Bip]V[Orn][dL][Dab]LVTCA-NH2; thioether N-14)
12 | 17.8 nM | CC(C)C[C@H]1NC(=O)[C@H](CCCN)NC(=O)[C@H](C(C)C)NC(=O)[C@H](Cc2ccc(-c3ccccc3)cc2)NC(=O)[C@H](C(C)C)NC(=O)[C@H](Cc2c[nH]c3ccccc23)NC(=O)[C@H](CC(=O)O)NC(=O)[C@H](Cc2ccc(OCC(=O)O)cc2)NC(=O)[C@H](C(C)O)NC(=O)CSC[C@@H](C(N)=O)NC(=O)[C@H](C(C)O)NC(=O)[C@H](C(C)C)NC(=O)[C@H](CC2CCCCC2)NC(=O)[C@H](CCN)NC1=O (stereo partly drawn) [Compound 2599] ({CH2CO}-[Thr(3ξ)]Y(Carboxymethyl)DWV[Bip]V[Orn][dL][Dab][Cha]V[Thr(3ξ)]C-NH2; thioether N-14)
13 | 6.1 nM | Cc1cccc(C[C@@H]2NC(=O)[C@H](CC(=O)O)NC(=O)[C@H](Cc3ccc(OCC(=O)O)cc3)NC(=O)[C@H](Cc3ccncc3)NC(=O)CSC[C@@H](C(=O)N[C@@H](CCN)C(N)=O)NC(=O)[C@H]([C@@H](C)O)NC(=O)[C@H](C(C)(C)O)NC(=O)[C@H](CC3CCCCC3)NC(=O)[C@H](CCN)NC(=O)[C@@H](CC(C)C)NC(=O)[C@H](CCCN)NC(=O)[C@H](Cc3ccc(OCC(=O)O)cc3)NC(=O)[C@H](Cc3ccc(-c4ccccc4)cc3)NC(=O)[C@H](Cc3ccc(OCC(=O)O)cc3)NC2=O)c1 [Compound 2066] ({CH2CO}-[4Pal]Y(Carboxymethyl)D[Phe(3-Me)]Y(Carboxymethyl)[Bip]Y(Carboxymethyl)[Orn][dL][Dab][Cha][Val(3-OH)]TC[Dab]-NH2; thioether N-14)
14 | 795 nM | Cc1cccc(C[C@@H]2NC(=O)[C@H](CC(=O)O)NC(=O)[C@H](Cc3ccc(C#N)cc3)NC(=O)[C@H](Cc3ccncc3)NC(=O)CSC[C@@H](C(=O)N[C@@H](CCN)C(N)=O)NC(=O)[C@H](Cc3c[nH]cn3)NC(=O)[C@H](C(C)(C)O)NC(=O)[C@H](CC3CCCCC3)NC(=O)[C@H](CCN)NC(=O)[C@@H](CC(C)C)NC(=O)[C@H](CCCN)NC(=O)[C@H](Cc3ccc(OCC(=O)O)cc3)NC(=O)[C@H](Cc3ccc(-c4ccccc4)cc3)NC(=O)[C@H](Cc3ccc(OCC(=O)O)cc3)NC2=O)c1 [Compound 2675] ({CH2CO}-[4Pal][Phe(4-CN)]D[Phe(3-Me)]Y(Carboxymethyl)[Bip]Y(Carboxymethyl)[Orn][dL][Dab][Cha][Val(3-OH)]HC[Dab]-NH2; thioether N-14)
